Tested on: chimeric PR-1a/GUS gene
Assay: Transient GUS expression in tobacco protoplasts treated with pCIB269
Format: cell-based, N. tabacum
Details: H2O 30.6 13
Procedure: B. DNA is introduced into protoplasts by a modification of the method of Negrutiu, I. et al., Plant Mol. Biol. 8: 363 (1987). The protoplasts prepared as described in part A are resuspended following the last washing step in a solution consisting of 0.4 M mannitol, 15-30 mM CaCl2, 0.1% w/v MES at a density of 1.6-2×10^6 per ml. The protoplast suspension is distributed as 0.5 ml aliquots into 10 ml plastic centrifuge tubes. DNA such as that described in Examples 28 to 40 is added in 10 l sterile distilled water, sterilized as described by Paszkowski, J. et al., EMBO J. 3: 2717 (1984), and then 0.5 ml of the PEG solution (40% (w/v) PEG MW 8000 in 0.4 M mannitol, 0.1 M Ca(NO3)2, pH 7.0) is added. The solutions are mixed gently and incubated for 30 minutes at room temperature (about 24° C.) with occasional shaking. 1 ml of the wash solution is then added, and the contents of the tube gently mixed. […]
The reactions are carried out in the wells of ELISA plates by mixing 5-25 l extract with 120-100 l GUS assay buffer (50 mM sodium phosphate buffer pH 7.0, 0.1% Triton X-100, 10 mM β-mercaptoethanol) containing 4-methyl umbelliferyl glucuronide (MU) at a final concentration of 2 mM in a total volume of 125 l. […] The concentration of fluorescent indicator released is determined by reading the plate on a Flow Labs Fluoroskan II ELISA plate reader.

## COC(=O)c1cccc2nnsc12 [Methyl benzo-1,2,3-thiadiazole-7-carboxylate]
  GUS activity, transient expression: 66.6 pKat MU/mg protein

— US6632981B1, “DNA sequences encoding polypeptides having beta-1,3-glucanase activity” (Novartis Finance Corporation, priority 1988, dated 2003)
